Assay results from ChEMBL document CHEMBL1134831, “2-(3,5-Dimethylphenyl)tryptamine derivatives that bind to the GnRH receptor” (Bioorg Med Chem Lett, 2001).

biological target: T1, Gonadotropin-releasing hormone receptor (Rattus norvegicus, UniProt P30969); assay: Inhibition of rat GnRH receptor binding
T1 sequence (P30969 whole entry): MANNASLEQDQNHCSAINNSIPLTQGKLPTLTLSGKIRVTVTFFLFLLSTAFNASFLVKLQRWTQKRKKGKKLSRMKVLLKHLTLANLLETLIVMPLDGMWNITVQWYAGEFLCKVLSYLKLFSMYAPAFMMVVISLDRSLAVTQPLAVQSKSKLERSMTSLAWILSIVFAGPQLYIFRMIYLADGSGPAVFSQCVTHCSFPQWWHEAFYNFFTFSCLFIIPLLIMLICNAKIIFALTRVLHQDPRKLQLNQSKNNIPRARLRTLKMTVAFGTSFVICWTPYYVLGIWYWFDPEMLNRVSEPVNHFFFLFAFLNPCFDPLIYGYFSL

| SMILES | IC50 [nM] |
| --- | --- |
| Cc1cc(C)cc(-c2[nH]c3ccccc3c2CCNCCCCc2ccc(N)cc2)c1 | 300 |
| Cc1cc(C)cc(-c2[nH]c3ccccc3c2CCNCCCCc2ccc([N+](=O)[O-])cc2)c1 | 500 |
| Cc1cc(C)cc(-c2[nH]c3ccccc3c2CCNCCCCc2ccc(NS(=O)(=O)C(C)C)cc2)c1 | 220 |
| Cc1cc(C)cc(-c2[nH]c3ccccc3c2CCNCCCCc2ccc(S(N)(=O)=O)cc2)c1 | 36 |
| Cc1cc(C)cc(-c2[nH]c3ccccc3c2CCNCCCCc2ccc(F)cc2)c1 | 300 |
| Cc1cc(C)cc(-c2[nH]c3ccccc3c2CCNCCCCc2ccc(NS(=O)(=O)c3ccccc3)cc2)c1 | 300 |
| CNS(=O)(=O)Nc1ccc(CCCCNCCc2c(-c3cc(C)cc(C)c3)[nH]c3ccccc23)cc1 | 47 |
| CCS(=O)(=O)Nc1ccc(CCCCNCCc2c(-c3cc(C)cc(C)c3)[nH]c3ccccc23)cc1 | 200 |
| CC(=O)Nc1ccc(CCCCNCCc2c(-c3cc(C)cc(C)c3)[nH]c3ccccc23)cc1 | 200 |
| CCNS(=O)(=O)Nc1ccc(CCCCNCCc2c(-c3cc(C)cc(C)c3)[nH]c3ccccc23)cc1 | 40 |
| CCNC(=O)Nc1ccc(CCCCNCCc2c(-c3cc(C)cc(C)c3)[nH]c3ccccc23)cc1 | 28 |
| CNC(=O)Nc1ccc(CCCCNCCc2c(-c3cc(C)cc(C)c3)[nH]c3ccccc23)cc1 | 48 |
